In patent publication US12435057B2, “Triazole carboxylic acids as LPA antagonists” (BRISTOL-MYERS SQUIBB COMPANY, priority 2019, dated 2025):
Counter-ions that a name gives are not always drawn.

target: T1, human LPA1 (Homo sapiens, UniProt Q92633); assay: LPA1 functional antagonist assay (calcium flux); format: cell-based; conditions: CHO cells overexpressing human LPA1; inhibition of calcium flux induced by 10 nM LPA; read-out: hLPA1 IC50
T1 construct: expressed in transfected cells; host or cells: Chinese hamster ovary (CHO) cells
Experimental: The effectiveness of compounds of the present invention as LPA1 inhibitors can be determined in an LPA1 functional antagonist assay as follows: • Chinese hamster ovary cells overexpressing human LPA1 were plated overnight (15,000 cells/well) in poly-D-lysine coated 384-well microplates (Greiner bio-one, Cat #781946) in DMEM/F12 medium (Gibco, Cat #11039). Following overnight culture, cells were loaded with calcium indicator dye (AAT Bioquest Inc, Cat #34601) for 30 minutes at 37° C. The cells were then equilibrated to room temperature for 30 minutes before the assay. Test compounds solubilized in DMSO were transferred to 384 well non-binding surface plates (Corning, Cat #3575) using the Labcyte Echo acoustic dispense and diluted with assay buffer [[…] with calcium/magnesium (Gibco Cat #14025-092), 20 mM HEPES (Gibco Cat #15630-080) and 0.1% fatty acid free BSA (Sigma Cat #A9205)] to a final concentration of 0.5% DMSO. Diluted compounds were added to the cells by FDSS6000 (Hamamatsu) at final concentrations ranging from 0.08 nM to 5 μM. and were then incubated for 20 min at room temperature at which time LPA (Avanti Polar Lipids Cat #857130C) was added at final concentrations of 10 nM to stimulate the cells. The compound IC50 value was defined as the concentration of test compound which inhibited 50% of the calcium flux induced by LPA alone. IC50 values were determined by fitting data to a 4-parameter logistic equation (GraphPad Prism, San Diego CA). b. In Vivo Assays LPA Challenge with Plasma Histamine Evaluation.

T1 sequence (Q92633 whole entry): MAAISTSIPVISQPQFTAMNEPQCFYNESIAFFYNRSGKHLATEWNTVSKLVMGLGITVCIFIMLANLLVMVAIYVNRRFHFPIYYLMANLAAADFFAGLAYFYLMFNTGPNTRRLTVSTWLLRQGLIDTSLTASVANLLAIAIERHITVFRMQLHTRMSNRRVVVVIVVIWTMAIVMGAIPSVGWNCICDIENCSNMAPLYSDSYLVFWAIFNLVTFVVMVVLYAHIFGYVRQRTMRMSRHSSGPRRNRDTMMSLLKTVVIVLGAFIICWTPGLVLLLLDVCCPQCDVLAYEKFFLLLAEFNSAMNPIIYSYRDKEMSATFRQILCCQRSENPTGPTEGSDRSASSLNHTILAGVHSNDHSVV

SMILES | IC50
Cc1nc(-c2nnn(C)c2COC(=O)N(C)CC2CCC2)ccc1O[C@H]1CC2C[C@H]2[C@@H](C(=O)O)C1 (single isomer, unassigned) [Example 9] | 582 nM
Cc1nc(-c2nnn(C)c2COC(=O)N(C)CC2CCC2)ccc1O[C@@H]1CCC[C@@]2(C(=O)O)C[C@@H]12 (single isomer, unassigned) [Example 11] | 130 nM
Cc1nc(-c2nnn(C)c2COC(=O)N(C)CC2CCC2)ccc1O[C@H]1CCC[C@]2(C(=O)O)C[C@H]12 (single isomer, unassigned) [Example 12] | 278 nM
CCCN(C)C(=O)OCc1c(-c2ccc(O[C@H]3C[C@H](C(=O)O)[C@@H]4C[C@@H]43)c(C)n2)nnn1C [Example 13] | 793 nM
CCCCN(C)C(=O)OCc1c(-c2ccc(O[C@H]3C[C@H](C(=O)O)[C@@H]4C[C@@H]43)c(C)n2)nnn1C [Example 14] | 143 nM
Cc1nc(-c2nnn(C)c2CNc2noc(CC3CC3)n2)ccc1O[C@H]1C[C@H](C(=O)O)[C@@H]2C[C@@H]21 [Example 15] | 1050 nM
Cc1nc(-c2nnn(C)c2NC(=O)OCC2CC2)ccc1O[C@H]1C[C@H](C(=O)O)[C@@H]2C[C@@H]21 [Example 16] | 1.43 nM
CCCCN(C)C(=O)OCc1c(-c2ccc(O[C@@H]3COC[C@@H](C(=O)O)C3)c(C)n2)nnn1C [Example 18] | 174 nM
CCCCCN(C)C(=O)OCc1c(-c2ccc(O[C@@H]3COC[C@@H](C(=O)O)C3)c(C)n2)nnn1C [Example 19] | 151 nM
Cc1nc(-c2nnn(C)c2COC(=O)N(C)CCC(C)C)ccc1O[C@@H]1COC[C@@H](C(=O)O)C1 [Example 20] | 222 nM
Cc1nc(-c2nnn(C)c2COC(=O)N(C)CC2CCC2)ccc1O[C@@H]1COC[C@@H](C(=O)O)C1 [Example 21] | 168 nM
Cc1nc(-c2nnn(C)c2COC(=O)N(C)CC2CCCC2)ccc1O[C@@H]1COC[C@@H](C(=O)O)C1 [Example 22A] | 160 nM
Cc1nc(-c2nnn(C)c2COC(=O)N(C)Cc2ccccc2)ccc1O[C@@H]1COC[C@@H](C(=O)O)C1 [Example 22B] | 178 nM
Cc1nc(-c2nnn(C)c2Cn2nncc2CC2CCCC2)ccc1O[C@H]1COC[C@H](C(=O)O)C1 [Example 25] | 931 nM
Cc1nc(-c2nnn(C)c2Cn2cc(CC3CCCC3)nn2)ccc1O[C@H]1COC[C@H](C(=O)O)C1 [Example 26] | 772 nM
Cc1nc(-c2nnn(C)c2Cn2ncc(CC3CCCC3)n2)ccc1O[C@H]1COC[C@H](C(=O)O)C1 [Example 27] | 110 nM
Cc1nc(-c2nnn(C)c2COC(=O)N(C)Cc2ccccc2)ccc1O[C@H]1COC[C@@H](C(=O)O)C1 [Example 29] | 594 nM

The remaining lines, values ahead:

IC50 | SMILES
619 nM | Cc1nc(-c2nnn(C)c2COC(=O)N(C)CC2CCC2)ccc1O[C@@H]1CC[C@H]2C(C(=O)O)[C@@H]12 (single isomer, unassigned) [Example 42]
15 nM | Cc1nc(-c2nnn(C)c2COC(=O)N(C)CC2CCC2)ccc1O[C@H]1CC[C@@H]2[C@@H](C(=O)O)[C@@H]21 (single isomer, unassigned) [Example 43]
65 nM | Cc1nc(-c2nnn(C)c2COC(=O)N(C)CC2CCC2)ccc1O[C@@H]1CC[C@H]2C(C(=O)O)[C@@H]12 (single isomer, unassigned) [Example 44, TFA Salt]
92 nM | Cc1nc(-c2nnn(C)c2COC(=O)N(C)CC2CCC2)ccc1O[C@@H]1CC[C@H]2C(C(=O)O)[C@@H]12 (single isomer, unassigned) [Example 45]
2010 nM | Cc1nc(-c2nnn(C)c2COC(=O)N(C)CC2CCC2)ccc1O[C@H]1CC[C@@H]2[C@@H](C(=O)O)[C@@H]21 (single isomer, unassigned) [Example 46]
236 nM | CCCCN(C)C(=O)OCc1c(-c2ccc(O[C@H]3COC[C@@H](C(=O)O)C3)c(C)n2)nnn1C [Example 30]
2.29 nM | CCCCCN(C)C(=O)OCc1c(-c2ccc(O[C@H]3COC[C@@H](C(=O)O)C3)c(C)n2)nnn1C [Example 31]
